Earlier results as cited in patent US20080254084A1, “Antimicrobial Preparations Having a Content of Octenidine Dihydrochloride Encapsulated in Liposomes” (Air Liquide Sante (International), priority 2005, published 2008).
Counter-ions that a name gives are not always drawn.

Tests used:
[1] = system: a large number of microbes; conditions: concentrations of >0.001% octenidine dihydrochloride, within 1 min
[2] = octenidine dihydrochloride concentration

SMILES: CCCCCCCCNc1cc[n+](CCCCCCCCCC[n+]2ccc(NCCCCCCCC)cc2)cc1 [octenidine dihydrochloride]
- reduction factor [1]: 5 decadic units
- concentration at which cytotoxicity is present [2]: > 0.001 % by weight
